Article PMC6199744, “Development of Chemical Proteomics for the Folateome and Analysis of the Kinetoplastid Folateome” (ACS Infectious Diseases, 2018)
“And” between values parts separate entries of the source, which are not always exact repeats. Equal entries are not always repeated. Where two headings read alike, the source gives them in different places.

Tested on: T. brucei lysate proteins
Format: binding, Trypanosoma brucei

SMILES: CCCCCCOc1ccc(Cc2cnc(N)nc2N)cc1 [compound 1]
- fold change - vehicle control: 0.84 and 0.54 and 0.72 and 0.9 and 0.79
- fold change - vehicle control (protein RHS6A (CZT00028360.1)): 0.94
- fold change - vehicle control (protein TB09.160.1250 HY[…], CONSERVED): 0.85
- fold change - vehicle control (protein TB09.160.3670 RIBOSOMAL PROTEIN S6, PUTATIVE): 0.92
- fold change - vehicle control (protein TB09.211.2630 60S RIBOSOMAL PROTEIN L23, PUTATIVE): 1
- fold change - vehicle control (protein TB09.211.4513 KIN[…] PROTEIN KMP-11): 0.73
- fold change - vehicle control (protein TB11.V4.0005 RIBONUCLEOSIDE-DIPHOSPHATE REDUCTASE SMALL CHAIN): 0.92
- fold change - vehicle control (protein TB11.01.0870 R[…] A, 51KDA SUBUNIT, PUTATIVE): 0.98
- fold change - vehicle control (protein TB11.01.2560 40S RIBOSOMAL PROTEIN SA, PUTATIVE): 1.02
- fold change - vehicle control (protein TB11.01.4880 HY[…], CONSERVED): 0.77
- fold change - vehicle control (protein TB11.01.7090 HY[…], CONSERVED): 0.93
- fold change - vehicle control (protein TB11.02.2510 GUANINE NUCLEOTIDE-BINDING BETA SUBUNIT-LIKE PROTEIN): 0.93
- fold change - vehicle control (protein TB11.02.4170 40S RIBOSOMAL PROTEIN S5, PUTATIVE): 1.3
- fold change - vehicle control (protein TB11.03.0250 C[…]): 1.42
- fold change - vehicle control (protein TB11.46.0009 HY[…], CONSERVED): 0.95
- fold change - vehicle control (protein TB427TMP.01.1475 40S RIBOSOMAL PROTEIN S27, PUTATIVE): 0.92
- fold change - vehicle control (protein TB427TMP.01.4280 HY[…], CONSERVED): 1.08
- fold change - vehicle control (protein TB427TMP.01.4650 HY[…], CONSERVED): 0.58
- fold change - vehicle control (protein TB427TMP.01.4810 HY[…], CONSERVED): 0.83
- fold change - vehicle control (protein TB427TMP.01.5680 HY[…], CONSERVED): 0.33
- fold change - vehicle control (protein TB427TMP.01.8390 HY[…], CONSERVED): 0.87
- fold change - vehicle control (protein TB427TMP.02.0230 HY[…], CONSERVED): 1.01
- fold change - vehicle control (protein TB427TMP.02.0460 NUCLEOPORIN): 0.92
- fold change - vehicle control (protein TB427TMP.02.1106 NUCLEOBASE/NUCLEOSIDE TRANSPORTER 8 1): 1.06
- fold change - vehicle control (protein TB427TMP.160.2050 ENDO-BETA-N-ACETYLGLUCOSAMINIDASE, PUTATIVE): 0.79
- fold change - vehicle control (protein TB427TMP.160.4310 GLUTAMATE DEHYDROGENASE): 1.16
- fold change - vehicle control (protein TB427TMP.160.4450 40S RIBOSOMAL PROTEIN S3, PUTATIVE): 1
- fold change - vehicle control (protein TB427TMP.160.4630 HY[…], CONSERVED): 0.8
- fold change - vehicle control (protein TB427TMP.160.5200 HY[…], CONSERVED): 0.67
- fold change - vehicle control (protein TB427TMP.160.5670 HY[…], CONSERVED): 0.21
- fold change - vehicle control (protein TB427TMP.211.0930 POLYADENYLATE-BINDING PROTEIN 1): 1.23
- fold change - vehicle control (protein TB427TMP.211.1750 MIT[…] PROTEIN, PUTATIVE): 0.86
- fold change - vehicle control (protein TB427TMP.211.3510 ATP-DEPENDENT DEAD/H RNA HELICASE, PUTATIVE): 0.97
- fold change - vehicle control (protein TB427TMP.211.4540 RNA-BINDING PROTEIN, PUTATIVE): 0.71
- fold change - vehicle control (protein TB427TMP.244.2840 HY[…], CONSERVED): 0.64
- fold change - vehicle control (protein TB427.01.1240 CYTIDINE TR[…], PUTATIVE): 0.67
- fold change - vehicle control (protein TB427.01.2570 COATOMER BETA SUBUNIT): 0.88
- fold change - vehicle control (protein TB427.01.3910 HY[…], CONSERVED): 0.83
- fold change - vehicle control (protein TB427.02.6240): 0.95
- fold change - vehicle control (protein TB427.04.3350 HY[…], CONSERVED): 1.02
- fold change - vehicle control (protein TB427.04.3890 ATP-DEPENDENT RNA HELICASE, PUTATIVE): 0.9
- fold change - vehicle control (protein TB427.04.4870 AMINO ACID TRANSPORTER, PUTATIVE): 0.86
- fold change - vehicle control (protein TB427.04.750 50S RIBOSOMAL PROTEIN L7AE, PUTATIVE): 0.67
- fold change - vehicle control (protein TB427.04.960 HY[…], CONSERVED): 0.68
- fold change - vehicle control (protein TB427.05.1780 HY[…], CONSERVED): 0.66
- fold change - vehicle control (protein TB427.05.3030 INTR[…] PROTEIN IFT122, PUTATIVE): 0.78
- fold change - vehicle control (protein TB427.05.4560 GUANINE DEAMINASE, PUTATIVE): 1.07
- fold change - vehicle control (protein TB427.06.2150 CELL DIVISION CYCLE PROTEIN 16, PUTATIVE): 0.92
- fold change - vehicle control (protein TB427.06.3110 PROTEIN KINASE, PUTATIVE (CRK11)): 1.03
- fold change - vehicle control (protein TB427.06.5110 DAMAGE-SPECIFIC DNA BINDING PROTEIN, PUTATIVE): 0.86
- fold change - vehicle control (protein TB427.07.2670 HY[…], CONSERVED): 0.89
- fold change - vehicle control (protein TB427.07.3040 HY[…], CONSERVED): 0.9
- fold change - vehicle control (protein TB427.07.3530 HY[…], CONSERVED): 0.96
- fold change - vehicle control (protein TB427.07.4970 GLUTAMINE SYNTHETASE, PUTATIVE): 0.89
- fold change - vehicle control (protein TB427.07.5560 GLUCOSAMINE-FRUCTOSE-6-PHOSPHATE AMINOTRANSFERASE, PUTATIVE): 0.77
- fold change - vehicle control (protein TB427.07.5890 HY[…], CONSERVED): 0.86
- fold change - vehicle control (protein TB427.07.7070 HY[…], CONSERVED): 0.72
- fold change - vehicle control (protein TB427.07.7460 HY[…], CONSERVED): 0.81
- fold change - vehicle control (protein TB427.08.1500 HY[…], CONSERVED): 0.87
- fold change - vehicle control (protein TB427.08.1840 HY[…], CONSERVED): 1.24
- fold change - vehicle control (protein TB427.08.1960 HY[…], CONSERVED): 0.78
- fold change - vehicle control (protein TB427.08.2080 HY[…], CONSERVED): 0.67
- fold change - vehicle control (protein TB427.08.3750 NUCLEOLAR PROTEIN, PUTATIVE): 0.89
- fold change - vehicle control (protein TB427.08.6390 LYSOPHOSPHOLIPASE, PUTATIVE): 0.97
- fold change - vehicle control (protein TB427.10.10610 PROTEIN TYROSINE PHOSPHATASE, PUTATIVE): 0.62
- fold change - vehicle control (protein TB427.10.1100 60S RIBOSOMAL PROTEIN L9, PUTATIVE): 1.06
- fold change - vehicle control (protein TB427.10.12740): 0.9
- fold change - vehicle control (protein TB427.10.14660 HY[…], CONSERVED): 0.83
- fold change - vehicle control (protein TB427.10.15720 […]-ATP-ASE SUBUNIT 9): 0.9
- fold change - vehicle control (protein TB427.10.2440 METACASPASE MCA4): 0.84
- fold change - vehicle control (protein TB427.10.2900 IMPORTIN BETA-1 SUBUNIT, PUTATIVE): 0.68
- fold change - vehicle control (protein TB427.10.3470 HY[…], CONSERVED): 0.78
- fold change - vehicle control (protein TB427.10.4110 60S RIBOSOMAL PROTEIN L30): 0.82
- fold change - vehicle control (protein TB427.10.4610 […]-MANNOSE SYNTHASE, PUTATIVE): 0.82
- fold change - vehicle control (protein TB427.10.5250 HY[…], CONSERVED): 0.86
- fold change - vehicle control (protein TB427.10.7410 SUCCINYL-COA LIGASE GDP-FORMING] BETA-CHAIN, PUTATIVE): 0.9
- fold change - vehicle control (protein TB927.10.12960 RAS-RELATED PROTEIN RAB-5): 0.82
- fold change - vehicle control (protein TB927.10.14800 PROTEIN KINASE, PUTATIVE): 1.18
- fold change - vehicle control (protein TB927.10.2980 […]-ATPASE SUBUNIT 11): 0.83
- fold change - vehicle control (protein TB927.10.3660 ASPARTATE AMINOTRANSFERASE): 1.14
- fold change - vehicle control (protein TB927.10.4570 […] 2): 0.72
- fold change - vehicle control (protein TB927.10.5140 PROTEIN KINASE, PUTATIVE): 0.83
- fold change - vehicle control (protein TB927.10.560 40S RIBOSOMAL PROTEINS S11, PUTATIVE): 0.94
- fold change - vehicle control (protein TB927.10.6510 CHAPERONIN HSP60, MIT[…]): 0.87
- fold change - vehicle control (protein TB927.3.1840 3-OXO-5-ALPHA-STEROID 4-DEHYDROGENASE, PUTATIVE): 1
- fold change - vehicle control (protein TB927.3.3780 TRYPAREDOXIN): 0.82
- fold change - vehicle control (protein TB927.3.740 HY[…], CONSERVED): 0.83
- fold change - vehicle control (protein TB927.4.2740 HY[…], CONSERVED): 0.74
- fold change - vehicle control (protein TB927.4.3590 T[…] 1-BETA, PUTATIVE): 0.85
- fold change - vehicle control (protein TB927.6.4320 HY[…], CONSERVED): 0.84
- fold change - vehicle control (protein TB927.7.2550 […] SUBUNIT 5): 0.7
- fold change - vehicle control (protein TB927.7.2980 HY[…], CONSERVED): 0.84
- fold change - vehicle control (protein TB927.7.7430 ATP SYNTHASE ALPHA CHAIN, MIT[…]): 0.73
- fold change - vehicle control (protein TB927.8.1990 PEROXIDOXIN): 0.74
- fold change - vehicle control (protein TB927.8.4720 AMINO ACID TRANSPORTER, PUTATIVE): 1.08
- fold change - vehicle control (protein TB927.8.890 SMALL GTP-BINDING PROTEIN RAB1, PUTATIVE): 0.93
